Data taken from article PMC10877733, “Discovery and Characterization of VU0542270, the First Selective Inhibitor of Vascular Kir6.1/SUR2B KATP Channels” (Molecular Pharmacology, 2024).

What was measured:
Kir2.3 = target: T1, Kir2.3 (Homo sapiens, UniProt P48050); assay: Thallium flux selectivity assay Kir2.3; assay type: cell-based
T1 construct: expressed in transfected cells
T1 sequence (P48050 1-445): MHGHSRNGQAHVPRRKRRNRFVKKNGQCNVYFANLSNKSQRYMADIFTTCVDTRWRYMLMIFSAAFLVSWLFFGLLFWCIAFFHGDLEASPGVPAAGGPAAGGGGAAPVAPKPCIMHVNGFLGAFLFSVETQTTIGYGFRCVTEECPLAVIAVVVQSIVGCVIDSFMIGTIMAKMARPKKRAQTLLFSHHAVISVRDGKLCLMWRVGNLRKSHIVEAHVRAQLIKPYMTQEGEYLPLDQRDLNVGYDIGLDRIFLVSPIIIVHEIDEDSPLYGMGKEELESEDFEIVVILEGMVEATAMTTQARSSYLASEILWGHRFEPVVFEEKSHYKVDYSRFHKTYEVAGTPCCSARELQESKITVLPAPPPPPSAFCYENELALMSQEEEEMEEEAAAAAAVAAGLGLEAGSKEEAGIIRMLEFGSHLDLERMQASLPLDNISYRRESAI
Procedure: (§1) Quantitative thallium flux assays of Kir6.1/SUR2B activity were performed essentially as described previously for Kir6.2/SUR1 ([Raphemot et al., 2014]; [Kharade et al., 2019]). Stable T-Rex-HEK293-Kir6.1/SUR2B cells or transiently transfected HEK293T cells were plated in polyamine-coated, clear-bottomed, black-walled 384-well plates and were cultured (37°C/5% CO2) overnight in Dulbecco’s modified Eagle’s medium (Gibco, Carlsbad, CA, 11995-065) containing 10% FBS (2 mM Penicillin-Streptomycin). The following day, cells were washed with assay buffer (i.e., Hanks’ balanced salt solution/20 mM HEPES) and loaded for 1 hour with thallium sensor dye Brilliant Thallium (Ion Bioscience, San Marcos, TX) at room temperature. Dye-loaded cells were washed with assay buffer and transferred to a Panoptic Kinetic Imaging Plate Reader (Wavefront Bioscience, Franklin, TN). Control and test compound treatments were for 4 minutes prior to adding 0.5 mM chloride-free thallium stimulus buffer (Ion Bioscience) to initiate thallium flux. […] Selectivity assays against other Kir channels were performed essentially as described previously ([Kharade et al., 2018]; [McClenahan et al., 2022]).

Kir3.1/Kir3.2 = target: T2, Kir3.1/Kir3.2 (Homo sapiens, UniProt P48051+P48549); assay: Thallium flux selectivity assay Kir3.1/Kir3.2; assay type: cell-based
T2 construct: expressed in transfected cells
T2 sequence (P48549 1-501): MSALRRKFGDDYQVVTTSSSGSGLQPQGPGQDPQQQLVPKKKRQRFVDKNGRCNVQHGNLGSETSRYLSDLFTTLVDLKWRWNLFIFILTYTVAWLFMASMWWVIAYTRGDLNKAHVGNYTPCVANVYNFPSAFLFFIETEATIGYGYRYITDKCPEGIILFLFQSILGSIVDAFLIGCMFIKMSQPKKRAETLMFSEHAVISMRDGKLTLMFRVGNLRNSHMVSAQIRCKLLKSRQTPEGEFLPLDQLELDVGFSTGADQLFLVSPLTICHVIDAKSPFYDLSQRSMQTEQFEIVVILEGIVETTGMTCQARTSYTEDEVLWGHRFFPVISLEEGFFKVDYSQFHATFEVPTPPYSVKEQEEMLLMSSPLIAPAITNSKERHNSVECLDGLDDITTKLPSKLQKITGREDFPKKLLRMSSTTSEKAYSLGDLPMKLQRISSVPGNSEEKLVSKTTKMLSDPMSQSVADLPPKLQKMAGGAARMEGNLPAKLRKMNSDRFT
T2 sequence (P48051 1-423): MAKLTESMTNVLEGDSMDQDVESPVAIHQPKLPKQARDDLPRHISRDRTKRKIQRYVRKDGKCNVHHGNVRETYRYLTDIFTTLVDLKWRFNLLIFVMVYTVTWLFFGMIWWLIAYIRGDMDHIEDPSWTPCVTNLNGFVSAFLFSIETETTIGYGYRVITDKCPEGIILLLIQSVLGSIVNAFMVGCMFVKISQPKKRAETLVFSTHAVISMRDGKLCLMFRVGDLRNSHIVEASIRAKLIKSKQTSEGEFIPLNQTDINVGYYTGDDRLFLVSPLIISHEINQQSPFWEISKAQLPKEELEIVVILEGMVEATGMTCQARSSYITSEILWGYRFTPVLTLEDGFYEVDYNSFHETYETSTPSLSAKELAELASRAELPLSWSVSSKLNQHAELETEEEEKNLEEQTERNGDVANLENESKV
Procedure: as §1

[1] = Plasma binding by equilibrium dialysis, rat; assay type: in vitro ADME; details: equilibrium dialysis 6 hours 37°C, read-out: Fu, plasma (rat)
Procedure: (§2) Determination of VU0542270 fraction unbound (fu) in plasma from mouse, rat, and human was conducted in vitro via equilibrium dialysis using high-throughput dialysis (HTD) membrane plates. Dialysis membranes (four paired strips per HTD assay) were hydrated as described by the manufacturer and inserted into the HTD plate, which was assembled and prepared for sample addition by the dispensing of blank buffer [Delbecco’s phosphate buffered saline (DPBS), 100 µL/well] into the “top half” of each membrane-split well. VU0542270 was diluted into plasma from each species (5 µM final concentration), which was aliquoted in triplicate to the “bottom half” of the prepared HTD plate wells. The HTD plate was sealed and incubated for 6 hours at 37°C. Following incubation, each well (both top and bottom halves) was transferred (20 µL) to the corresponding well of a 96-shallow-well (V-bottom) plate. […]
(§3) fu was calculated as (analyte to IS mass spectrometry (MS) peak area ratio from Trans-buffer side)/(analyte to IS MS peak area ratio from Cis-plasma side). Mean values for each species were calculated from three replicates.

[2] = Plasma binding by equilibrium dialysis, human; assay type: in vitro ADME; details: equilibrium dialysis 6 hours 37°C, read-out: Fu, plasma (human)
Procedure: as §2, §3

## Cc1nc(-c2cccs2)sc1CNC(=O)Nc1cccs1 [VU0542270]
Kir2.3
  IC50: > 30 µM
Kir3.1/Kir3.2
  IC50: > 30 µM
[1]
  fraction unbound at 6 h, 5 µM: 0.01
[2]
  fraction unbound at 6 h, 5 µM: 0.01
